Measurements taken from US11103605B2, “PET-imaging immunomodulators” (BRISTOL-MYERS SQUIBB COMPANY, priority 2016, dated 2021).

Legend:
[1] = system: endogenous PD-L1; assay: PET imaging in non-human primate, baseline and blocking study; details: for % Change of tracer SUV, baseline vs blocked: 2 mg/kg PD-L1 binding macrocyclic peptide
Procedure: (§1) Cynomolgus male monkeys with a previously installed vascular access port (VAP) were anesthetized with 0.02 mg/kg atropine, 5 mg/kg Telazol and 0.01 mg/kg buprenorphine I.M. (all drawn into a single syringe). An i.v. catheter is then placed in the cephalic vessel for fluid administration during the imaging procedure to maintain hydration. Animals were intubated with an endotracheal tube—usually 3.0 mm and transferred to the imaging bed of a microPET® F220TM PET instrument (Siemens Preclinical Solutions, Knoxville, Tenn.). Anesthesia was maintained with isoflurane and oxygen and I.V. fluids (LRS) were administered at a rate of 6 ml/kg/hr during the imaging procedure. As the axial field of view of the microPET® F220™ instrument is only 7.6 cm, images over 5 distinct bed positions were acquired to create a composite image of the animals from just above the heart through approximately the pelvis.
(§2) For each field of view, a 10 minute transmission image was first acquired using a ^57Co point source for the purpose of attenuation correction of the final PET images. Once transmission images were acquired for all bed positions, approximately 1.7 mCi (approximately 0.12 μg/kg) of the [^18F]labelled macrocyclic PD-L1 peptide radiotracer was administered via the installed VAP. 5 minute duration emission scans were then sequentially acquired for each bed position, beginning at position 1 centered approximately at the heart and moving toward the pelvis of the animal. Once images were acquired at each position (1 through 5), the imaging bed was moved back to bed position 1 and the process was repeated. Using this procedure, a total of 5 distinct images were acquired for each bed position over the duration of the imaging study.
(§3) Individual images were reconstructed using a filtered back projection (FBP) algorithm with attenuation correction using the collected transmission images and corrected for radioisotope decay. Final composite images were then produced by aligning images from all 5 bed positions obtained from a single pass (i.e. a single composite image was produced from each set of sequential images from bed positions 1 through 5) covering the duration of the imaging study. […] To determine the nature of the specific binding in the cynomolgus monkey spleen a blocking study was conducted in the following manner.
(§4) The cynomolgus monkey (4.4 kg, male) received a single IV injection of [^18F]labelled macrocyclic PD-L1 peptide radiotracer (˜1.7 mCi, mass: 0.21 μg/kg) at baseline. On the following day (post-dose), the same NHP received a single SC dose of 2 mg/kg anti-PD-L1 binding macrocyclic peptide at 2 hours before radiotracer injection (˜1.7 mCi, mass: 0.12 μg/kg).

[2] = as above; details: male, cynomolgus monkey, iv, total radioactivity
Procedure: as §1, §2, §3, §4

[3] = in vivo; details: mouse, hPD-L1(−) HT-29 xenograft tumor, iv, total radioactivity
Procedure: In this experiment, the [^18F]labelled macrocyclic PD-L1 peptide was produced as described in the above Examples, was tested for its ability to discriminate between hPD-L1-positive tumors and hPD-L1-negative tumors in mice.
Mice bearing bilateral xenograft tumors were produced by introducing 2×10^6 hPD-L1(+) L2987 human lung carcinoma cells and 4×10^6 hPD-L1(−) HT-29 human colon carcinoma cells subcutaneously on opposite sides of the mouse. Once tumors reached approximately 300 mm^3 (approximately 2-3 weeks after cell implantation), animals were selected for imaging. The body weight and tumor size of each study were measured and recorded on the imaging day before imaging procedure. Mice were placed in an anesthetic induction chamber and 3% isoflurane inhalant anesthesia was delivered in 100% O2 at a rate of 1-1.5 L/min. […] Mouse respiration was continuously monitored during imaging procedures and isoflurane may be adjusted dependent on depth of anesthesia. […] Time-activity curves were calculated for each ROI to yield a quantitative view of radiotracer within the tumor volume over the course of the 2 hour emission image. […]

In the case of CCCC[C@H]1C(=O)N(C)[C@@H](CCCC)C(=O)N[C@@H](CC(C)C)C(=O)N[C@H](C(=O)NCC(=O)N[C@@H](Cc2cn(CCOCCOCCOCCOc3cccnc3[18F])nn2)C(=O)O)CSCC(=O)N[C@@H](Cc2ccc(O)cc2)C(=O)N(C)[C@@H](C)C(=O)N[C@@H](CC(N)=O)C(=O)N2CCC[C@H]2C(=O)N[C@@H](CN)C(=O)N[C@@H](CC(C)C)C(=O)N2C[C@H](O)C[C@H]2C(=O)N[C@@H](Cc2c[nH]c3ccccc23)C(=O)N[C@@H](CCN)C(=O)N[C@@H](Cc2cn(CC(=O)O)c3ccccc23)C(=O)N1C [[^18F]labelled macrocyclic PD-L1 peptide], the “tracer uptake blocked in the spleen” value ([1]; 2 mg/kg of a specific PD-L1 binding macrocyclic peptide) is reported as 93%, the “% Change of tracer SUV, baseline vs blocked” value (“% Change of tracer SUV” below) ([1]; Duodenum) is reported as −0.9% and the “% Change of tracer SUV” value ([1]; Gallbladder) is reported as −59.4%. The “% Change of tracer SUV” value ([1]; Kidney Cortex) was 28.8%, the “% Change of tracer SUV” value ([1]; Kidney Pelvis) was 171.7% and the “% Change of tracer SUV” value ([1]; Liver) was −65.5%. The “% Change of tracer SUV” value ([1]; Lung) was −57.3%, the “% Change of tracer SUV” value ([1]; Muscle) was −34.7% and the “notable radiotracer accumulation (organs)” value ([1]; PET images) was “kidneys, spleen, and bladder”. For the same compound, the “% Change of tracer SUV” value ([1]; Spleen) was −92.8%, the “% Change of tracer SUV” value ([1]; Thymus) was −53.3% and the “background accumulation of radiotracer in background tissues such as muscle” value ([1]; visual inspection of PET images) was “very low”. For the same compound, the SUV ([2]; duodenum, 0.21 ug/kg) was 8.84 SUV, the SUV ([2]; duodenum, 2 mg/kg) was 8.76 SUV and the SUV ([2]; gallbladder, 0.21 ug/kg) was 2.78 SUV. The SUV ([2]; gallbladder, 2 mg/kg) was 1.13 SUV, the SUV ([2]; kidney cortex, 0.21 ug/kg) was 8.42 SUV and the SUV ([2]; kidney cortex, 2 mg/kg) was 10.8 SUV. For the same compound, the SUV ([2]; kidney pelvis, 0.21 ug/kg) was 8.86 SUV, the SUV ([2]; kidney pelvis, 2 mg/kg) was 24.1 SUV and the SUV ([2]; liver, 0.21 ug/kg) was 9.16 SUV. For the same compound, the SUV ([2]; liver, 2 mg/kg) was 3.17 SUV, the SUV ([2]; lung, 0.21 ug/kg) was 1.86 SUV and the SUV ([2]; lung, 2 mg/kg) was 0.793 SUV. For the same compound, the SUV ([2]; muscle, 0.21 ug/kg) was 0.521 SUV, the SUV ([2]; muscle, 2 mg/kg) was 0.341 SUV and the SUV ([2]; spleen, 0.21 ug/kg) was 19.7 SUV. It also gave an SUV ([2]; spleen, 2 mg/kg) of 1.42 SUV, an SUV ([2]; thymus, 0.21 ug/kg) of 1.99 SUV and an SUV ([2]; thymus, 2 mg/kg) of 0.931 SUV. For the same compound, the SUV ([3]; 1 ug/kg) was 0.037 SUV and the SUV ([3]; 60 mg/kg) was 0.071 SUV.
